Results: patent publication US20250304620A1, “ANTIMICROBIAL PEPTIDE AND APPLICATION THEREOF” (priority 2023, published 2025)
Values after ≈ are worked out from the molar mass of the structure shown. Marks after values point to notes of the source that are not given here. Non-standard residues stand in square brackets, D forms with d. Residues, ends and D or L forms follow the SMILES beside them. PEG2000 = polyethylene glycol 2000, conjugated to the N-terminus; PEG4000 = polyethylene glycol 4000, conjugated to the C-terminus; PEG200 = polyethylene glycol 200, conjugated to the C-terminus; PEG500 = polyethylene glycol 500, conjugated to the C-terminus; Phe(3,4-F2) = N[C@@H](Cc1ccc(F)c(F)c1)C(=O)O; Phe(4-Cl) = N[C@@H](Cc1ccc(Cl)cc1)C(=O)O; 2Nal = N[C@@H](Cc1ccc2ccccc2c1)C(=O)O; PEG1000 = polyethylene glycol 1000; Nva = CCC[C@H](N)C(=O)O

Legend:
[1] = test system: Staphylococcus aureus (NRS 384); experiment: microbe, parasite or virus in culture; format: cell-based
From the text: According to the Standards of Clinical and Laboratory Standards Institute (CLSI) of the USA for antimicrobial drug susceptibility test operation standards, a micronutrient serial twofold dilution method was used to determine minimum inhibitory concentrations (MICs) of all 60 peptides (S/N: LV-1˜LV-60) against Staphylococcus aureus (NRS 384). The experiment was repeated 5 times in parallel. […] An antibacterial drug Levofloxacin and an AMP Cbf-K16 (sequence of Cbf-K16: […]) were used as positive controls to evaluate the antibacterial effect of the antimicrobial peptides on Staphylococcus aureus (NRS 384).

rabbit red blood cells = format: cell-based; conditions: red cells of rabbit, 1 h
Experimental: Fresh rabbit blood ([…]) was collected and centrifuged at 500 g for 5 min, a supernatant was discarded, and red blood cells were repeatedly washed with phosphate-buffered saline (PBS, 0.01 M, pH 7.4) until the supernatant was clear. The red blood cells (RBCs) were resuspended to 10 mL, and diluted 25-fold with PBS (0.01 M, pH 7.4) to prepare a red blood cell suspension with a concentration of about 2×10^8 RBC/mL. The AMPs were subjected to gradient dilution with normal saline (0.85%, w/v, NaCl) according to a multiple dilution method, final concentrations of the SMPs were 1.95, 3.9, 7.8, 15.6, 31.3, 62.5, 125, 250, 500, 1000, and 2000 μg/mL. 100 μl of polypeptide solution was taken and added to a 96-well plate with 5 replicates for each concentration; 100 μl of rabbit blood with a red blood cell count of about 2×10^8 RBC/mL was then added to each well, the plate was incubated at 37° C. for 1 h, centrifuged at 500 g for 5 min, 100 μl of supernatant was taken and transferred to a new 96-well plate, and an optical density (OD) at a wavelength of 541 nm was measured using a microplate reader. Triton X-100 (10 mg/mL as a starting concentration, two-fold gradient dilution) was used as a positive control group. A hemolysis rate was calculated using the following formula: Hemolysis rate (%)=[(OD541 of experimental group-OD541 of negative control group)/(OD541 of positive control group−OD541 of negative control group)]×100% Specific results of the hemolysis test are shown in Table 6. Minimum hemolytic concentration (MHC): a lowest drug concentration that can cause 10% hemolysis.

[2] = test system: Pseudomonas aeruginosa ATCC 27853; experiment: Injectable formulations on mice infected with peritonitis; format: in vivo, ICR mice; conditions: 5 mg/kg via tail vein, twice a day for 3 days, n = 10
Experimental: Both female and male ICR mice were used in the test, half of the female and male mice were taken and randomly assigned into groups, with 10 mice in each group, and kept in separate cages. The mice were divided into a blank control group, a negative control group, a positive control Levofloxacin group, and AMPs LV-1 to LV-30 groups. A bacterial suspension of Pseudomonas aeruginosa ATCC 27853 was prepared, a concentration of the suspension was adjusted 1×10^9 CFU/mL for subsequent use. Except for the blank control group, all other mice were injected with the bacterial suspension (0.2 mL, 1×10^9 CFU/mL), into abdominal cavity of the mice, to establish a model. After the model was successfully established, the mice were given drug immediately according to their body weights. Except for the blank control group and the negative control group, the mice in all other groups were administered the corresponding injectable formulations via tail vein, twice a day for 3 consecutive days. The mice were then observed for 14 d. The death of mice in each group was observed, and survival time of the mice was recorded. Results of the effect of the injectable formulations of AMPs LV-1 to LV-30 on the survival time of mice infected with Pseudomonas aeruginosa are shown in Table 10.

[3] = test system: Escherichia coli ATCC 25922; experiment: Oral formulations on mice with systemic bacterial infection; format: in vivo, ICR mice; conditions: 5 mg/kg gavage, three times a day for 7 days, n = 10
Experimental: Both female and male ICR mice were used in the test, half of the female and male mice were taken and randomly assigned into groups, with 10 mice in each group, and kept in separate cages. The mice were divided into a blank control group, a negative control group, a positive control Levofloxacin group, and AMPs LV-1 to LV-30 groups. An Escherichia coli ATCC 25922 bacterial suspension was prepared, a concentration of the suspension was adjusted 1×10^7 CFU/mL for subsequent use. Except for the blank control group, all other mice were injected with the Escherichia coli suspension (0.2 mL, 1×10^7 CFU/mL), into abdominal cavity of the mice, to establish a model. After the model was successfully established, the mice were given drug immediately according to their body weights. Except for the blank control group and the negative control group, the mice in all other groups were gavaged with different compounds, three times a day for 7 consecutive days. The mice were then observed for 14 d. The death of mice in each group was observed, and survival time of the mice was recorded. Results of the effect of the oral formulations of AMPs LV-1 to LV-30 on the survival time of mice infected with Escherichia coli are shown in Table 11.

[4] = Staphylococcus aureus (NRS 384)

Row | Molecule | MIC against Staphylococcus aureus (NRS 384) ([1]; NRS 384) [µg/mL] | MHC (minimum hemolytic concentration, lowest concentration causing 10% hemolysis) (rabbit red blood cells) [µg/mL] | MIC against Staphylococcus aureus (NRS 384) [1, 4] [µg/mL] | also measured
1 | CC(=O)N[C@@H](CCCNC(=N)N)C(=O)N[C@@H](CCCNC(=N)N)C(=O)N[C@@H](CC(C)C)C(=O)N[C@@H](CC(C)C)C(=O)N[C@@H](Cc1ccc2ccccc2c1)C(=O)N[C@@H](CCCCN)C(=O)N[C@@H](CC(C)C)C(=O)N[C@@H](CCCCN)C(=O)N[C@@H](Cc1ccc2ccccc2c1)C(=O)N[C@@H](CCCCN)C(=O)N[C@@H](CCCNC(=N)N)C(N)=O [LV-54] (Ac-RRLL[2Nal]KLK[2Nal]KR-NH2) | 8 (≈ 4.86 µM) | >1000 | – | –
2 | C[C@H]1COc2c(N3CCN(C)CC3)c(F)cc3c(=O)c(C(=O)O)cn1c23 [Levofloxacin, reference compound] | – | – | – | MIC ([1]; Staphylococcus aureus (NRS 384), read-out: MIC against Staphylococcus aureus (NRS 384)): 1 µg/mL (≈ 2.77 µM); Number of mice that died on each day after infection: day 1 [2]: 3 Mouse; Number of mice that died on each day after infection: day 2 [2]: 1 Mouse; Number of mice that died on each day after infection: day 3 [2]: 1 Mouse; Number of mice that died on each day after infection: day 4 [2]: 1 Mouse; Number of mice that died on each day after infection: day 5 [2]: 1 Mouse; Average survival times (Days) ([2]; observed for 14 d): 5.9* Days; Number of mice that died on each day after infection: day 4 [3]: 2 Mouse; Number of mice that died on each day after infection: day 5 [3]: 2 Mouse; Number of mice that died on each day after infection: day 6 [3]: 1 Mouse; Number of mice that died on each day after infection: day 7 [3]: 1 Mouse; Number of mice that died on each day after infection: day 8 [3]: 1 Mouse; Average survival times (Days) ([3]; observed for 14 d): 8.1* Days
3 | CC(=O)N[C@@H](CCCCN)C(=O)N[C@@H](CCCCN)C(=O)N[C@@H](CC(C)C)C(=O)N[C@@H](CC(C)C)C(=O)N[C@@H](Cc1ccc2ccccc2c1)C(=O)N[C@@H](CCCCN)C(=O)N[C@@H](CC(C)C)C(=O)N[C@@H](CCCCN)C(=O)N[C@@H](Cc1ccc2ccccc2c1)C(=O)N[C@@H](CCCCN)C(=O)N[C@@H](CCCCN)C(N)=O [LV-47] (Ac-KKLL[2Nal]KLK[2Nal]KK-NH2) | 2 (≈ 1.28 µM) | >1000 | – | –
4 | CC(=O)N[C@@H](CCCCN)C(=O)N[C@@H](CCCCN)C(=O)N[C@@H](CC(C)C)C(=O)N[C@@H](CC(C)C)C(=O)N[C@@H](Cc1ccc2ccccc2c1)C(=O)N[C@@H](CCCNC(=N)N)C(=O)N[C@@H](CC(C)C)C(=O)N[C@@H](CCCCN)C(=O)N[C@@H](Cc1ccc2ccccc2c1)C(=O)N[C@@H](CCCNC(=N)N)C(=O)N[C@@H](CCCCN)C(N)=O [LV-49] (Ac-KKLL[2Nal]RLK[2Nal]RK-NH2) | 8 (≈ 4.94 µM) | >1000 | – | –
5 | CC(=O)N[C@@H](CCCCN)C(=O)N[C@@H](CCCCN)C(=O)N[C@@H](CC(C)C)C(=O)N[C@@H](CC(C)C)C(=O)N[C@@H](Cc1ccc(F)c(F)c1)C(=O)N[C@@H](CCCNC(=N)N)C(=O)N[C@@H](CC(C)C)C(=O)N[C@@H](CCCCN)C(=O)N[C@@H](Cc1ccc(F)c(F)c1)C(=O)N[C@@H](CCCNC(=N)N)C(=O)N[C@@H](CCCCN)C(N)=O [LV-55] (Ac-KKLL[Phe(3,4-F2)]RLK[Phe(3,4-F2)]RK-NH2) | 4 (≈ 2.52 µM) | >1000 | – | –
6 | CC(=O)N[C@@H](CCCNC(=N)N)C(=O)N[C@@H](CCCCN)C(=O)N[C@@H](CC(C)C)C(=O)N[C@@H](CC(C)C)C(=O)N[C@@H](Cc1ccc(Cl)cc1)C(=O)N[C@@H](CCCCN)C(=O)N[C@@H](CC(C)C)C(=O)N[C@@H](CCCCN)C(=O)N[C@@H](Cc1ccc(Cl)cc1)C(=O)N[C@@H](CCCCN)C(=O)N[C@@H](CCCNC(=N)N)C(N)=O [LV-37] (Ac-RKLL[Phe(4-Cl)]KLK[Phe(4-Cl)]KR-NH2) | 4 (≈ 2.52 µM) | >1000 | – | –
7 | CC(=O)N[C@@H](CCCNC(=N)N)C(=O)N[C@@H](CCCCN)C(=O)N[C@@H](CC(C)C)C(=O)N[C@@H](CC(C)C)C(=O)N[C@@H](Cc1ccccc1)C(=O)N[C@@H](CCCNC(=N)N)C(=O)N[C@@H](CC(C)C)C(=O)N[C@@H](CCCCN)C(=O)N[C@@H](Cc1ccc2ccccc2c1)C(=O)N[C@@H](CCCNC(=N)N)C(=O)N[C@@H](CCCCN)C(N)=O [LV-33] (Ac-RKLLFRLK[2Nal]RK-NH2) | 8 (≈ 5.01 µM) | >1000 | – | –
8 | CC(=O)N[C@@H](CCCNC(=N)N)C(=O)N[C@@H](CCCNC(=N)N)C(=O)N[C@@H](CC(C)C)C(=O)N[C@@H](CC(C)C)C(=O)N[C@@H](Cc1ccc2ccccc2c1)C(=O)N[C@@H](CCCNC(=N)N)C(=O)N[C@@H](CC(C)C)C(=O)N[C@@H](CCCCN)C(=O)N[C@@H](Cc1ccc2ccccc2c1)C(=O)N[C@@H](CCCNC(=N)N)C(=O)N[C@@H](CCCCN)C(N)=O [LV-51] (Ac-RRLL[2Nal]RLK[2Nal]RK-NH2) | 4 (≈ 2.39 µM) | >1000 | – | –
9 | Ac-RKLLXRLKXRK-PEG4000 [LV-60] (Ac-RKLL[2Nal]RLK[2Nal]RK-PEG4000) [polyethylene glycol 4000 conjugated to C-terminal; X=3-(2-naphthyl)-alanine] | – | – | 8 | –
10 | Ac-RKLLXRLKXRK-PEG200 [LV-56] (Ac-RKLL[2Nal]RLK[2Nal]RK-PEG200) [polyethylene glycol 200 conjugated to C-terminal; X=3-(2-naphthyl)-alanine] | – | – | 4 | –
11 | CCC[C@H](NC(=O)[C@H](CCCCN)NC(=O)[C@H](CCCNC(=N)N)NC(C)=O)C(=O)N[C@@H](CCC)C(=O)N[C@@H](Cc1ccc2ccccc2c1)C(=O)N[C@@H](CCCNC(=N)N)C(=O)N[C@@H](CCC)C(=O)N[C@@H](CCCCN)C(=O)N[C@@H](Cc1ccc2ccccc2c1)C(=O)N[C@@H](CCCNC(=N)N)C(=O)N[C@@H](CCCCN)C(N)=O [LV-43] (Ac-RK[Nva][Nva][2Nal]R[Nva]K[2Nal]RK-NH2) | 8 (≈ 4.99 µM) | >1000 | – | –
12 | Ac-RKLLXRLKXRK-PEG1000 [LV-58] (Ac-RKLL[2Nal]RLK[2Nal]RK-PEG1000) [polyethylene glycol 1000 conjugated to C-terminal; X=3-(2-naphthyl)-alanine] | – | – | 4 | –
13 | Ac-RKLLXRLKXRK-PEG500 [LV-57] (Ac-RKLL[2Nal]RLK[2Nal]RK-PEG500) [polyethylene glycol 500 conjugated to C-terminal; X=3-(2-naphthyl)-alanine] | – | – | 8 | –
14 | PEG2000-RKLLXRLKXRK-NH2 [LV-59] (PEG2000-RKLL[2Nal]RLK[2Nal]RK-NH2) [polyethylene glycol 2000 conjugated to N-terminal; X=3-(2-naphthyl)-alanine] | – | – | 4 | –
